Molecules are shown by their SMILES. Where two headings read alike, the source gives them in different places.

The target in assay [1] is T1, His-GST-TVMV-hRIPK1(1-324) (Homo sapiens, UniProt Q13546).
T1 construct: The coding region of human RIPK1(1-324) flanked by NdeI site at 5′ end; made in house; host or cells: Spodoptera frugiperda Sf9 insect cells (baculovirus, Bac-to-Bac)
T1 sequence (Q13546 1-324): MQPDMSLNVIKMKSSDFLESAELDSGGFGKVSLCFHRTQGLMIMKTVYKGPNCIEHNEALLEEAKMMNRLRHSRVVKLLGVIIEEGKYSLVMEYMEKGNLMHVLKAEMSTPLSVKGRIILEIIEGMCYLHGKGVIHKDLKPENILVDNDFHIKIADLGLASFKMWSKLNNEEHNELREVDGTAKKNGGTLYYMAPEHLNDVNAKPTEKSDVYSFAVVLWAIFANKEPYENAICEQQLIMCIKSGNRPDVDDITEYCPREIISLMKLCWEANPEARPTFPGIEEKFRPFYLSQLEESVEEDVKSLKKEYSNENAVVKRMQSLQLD
Briefly: biochemical. The assay is classed as binding.

In assay [2] the test system is MLKL phosphorylation in HT29-L23 human colorectal adenocarcinoma cells. The assay is described as follows: MLKL phosphorylation high-content assay. The assay is classed as cell-based.
Assay [3] deals with GST-tagged PIK3Cδ in complex with PIK3R1 (Homo sapiens, UniProt O00329). The assay is described as follows: PI3Kδ HTRF binding assay. To be noted: HTRF probe displacement, 1 h at rt; read-out: PIK3CD IC50. A general note: TR-FRET usually uses a lanthanide donor and a delayed reading to cut background.
The mark [4] stands for this setting: HTRF probe displacement, 1 h at rt, read-out: RIPK1 IC50.
The mark [5] stands for this setting: Homo sapiens, 6 h, read-out: pMLKL IC50, HT29-L23 cells, necroptosis induced with TNFα, SMAC mimetic and Z-VAD, 6 h, maximal inhibition defined by Nec1s.
The mark [6] stands for this setting: read-out: pMLKL IC50, HT29-L23 cells, necroptosis induced with TNFα, SMAC mimetic and Z-VAD, 6 h, maximal inhibition defined by Nec1s.
Where [7] appears, read: Table 22, compounds of the present invention, read-out: RPIK1 IC50.

GST-tagged PIK3Cδ in complex with PIK3R1, sequence (O00329 whole entry): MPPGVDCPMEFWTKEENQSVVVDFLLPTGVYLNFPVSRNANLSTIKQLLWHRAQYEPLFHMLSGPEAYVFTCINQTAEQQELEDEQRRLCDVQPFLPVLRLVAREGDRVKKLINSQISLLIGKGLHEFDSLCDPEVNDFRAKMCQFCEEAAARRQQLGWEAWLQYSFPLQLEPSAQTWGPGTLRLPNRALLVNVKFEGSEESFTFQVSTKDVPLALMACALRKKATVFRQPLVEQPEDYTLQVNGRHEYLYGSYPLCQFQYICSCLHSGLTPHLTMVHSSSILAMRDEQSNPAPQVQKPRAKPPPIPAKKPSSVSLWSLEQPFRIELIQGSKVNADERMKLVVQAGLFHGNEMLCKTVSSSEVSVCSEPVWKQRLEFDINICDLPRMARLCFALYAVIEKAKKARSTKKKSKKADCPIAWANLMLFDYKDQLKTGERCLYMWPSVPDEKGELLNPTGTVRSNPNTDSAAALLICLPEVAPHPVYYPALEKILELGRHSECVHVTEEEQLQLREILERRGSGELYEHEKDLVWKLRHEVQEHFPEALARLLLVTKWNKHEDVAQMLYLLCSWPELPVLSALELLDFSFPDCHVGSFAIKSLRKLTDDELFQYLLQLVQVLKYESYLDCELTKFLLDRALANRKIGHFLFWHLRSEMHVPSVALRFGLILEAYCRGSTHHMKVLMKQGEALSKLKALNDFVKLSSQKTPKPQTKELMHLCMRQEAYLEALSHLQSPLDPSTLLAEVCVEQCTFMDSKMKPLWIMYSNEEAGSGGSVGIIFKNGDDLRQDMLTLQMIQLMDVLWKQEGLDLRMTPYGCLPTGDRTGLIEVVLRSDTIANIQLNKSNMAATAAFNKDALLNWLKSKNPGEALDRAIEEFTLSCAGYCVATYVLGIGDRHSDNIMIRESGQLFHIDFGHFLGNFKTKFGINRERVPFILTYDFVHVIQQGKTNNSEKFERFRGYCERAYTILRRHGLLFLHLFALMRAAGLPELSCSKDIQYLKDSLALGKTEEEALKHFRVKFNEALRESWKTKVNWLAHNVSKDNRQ
GST-tagged PIK3Cδ in complex with PIK3R1, sequence (P27986 whole entry partner): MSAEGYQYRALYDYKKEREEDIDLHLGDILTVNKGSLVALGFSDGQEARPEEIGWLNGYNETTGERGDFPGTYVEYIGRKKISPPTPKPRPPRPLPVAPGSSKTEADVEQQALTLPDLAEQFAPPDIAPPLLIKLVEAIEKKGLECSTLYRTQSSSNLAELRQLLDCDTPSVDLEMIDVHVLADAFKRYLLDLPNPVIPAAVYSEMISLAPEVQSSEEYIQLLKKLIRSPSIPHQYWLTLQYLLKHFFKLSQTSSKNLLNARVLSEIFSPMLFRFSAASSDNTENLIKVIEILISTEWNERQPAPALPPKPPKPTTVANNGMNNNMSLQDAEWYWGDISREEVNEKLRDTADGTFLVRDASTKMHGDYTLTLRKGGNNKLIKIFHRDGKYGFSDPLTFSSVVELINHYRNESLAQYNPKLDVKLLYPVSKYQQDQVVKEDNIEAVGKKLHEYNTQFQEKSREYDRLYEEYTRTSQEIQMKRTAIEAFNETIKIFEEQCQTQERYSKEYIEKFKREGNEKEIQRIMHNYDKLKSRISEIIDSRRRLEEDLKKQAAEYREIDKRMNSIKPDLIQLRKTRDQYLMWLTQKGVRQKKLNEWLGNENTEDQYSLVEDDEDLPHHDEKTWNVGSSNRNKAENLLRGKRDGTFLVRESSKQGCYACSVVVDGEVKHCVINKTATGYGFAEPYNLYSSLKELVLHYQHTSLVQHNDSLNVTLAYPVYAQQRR

Consider `Cc1ccc(-c2ccn3nc(N)nc3c2)c(F)c1C(=O)NCCC(O)c1ccc(F)cc1` (single isomer, unassigned) [Example 50, 3-(2-amino-[1,2,4]triazolo[1,5-a]pyridin-7-yl)-2-fluoro-N-(3-(4-fluorophenyl)-3-hydroxypropyl)-6-methylbenzamide], for which the IC50 – broadly, the midpoint of a concentration-inhibition curve – in assay [1] (setting [4]) is 0.3 nM; in assay [2] (setting [5]), 1.9 nM; in assay [3], greater than 15000 nM.
As to `Cc1ccc(-c2ccn3nc(N)nc3c2)c(F)c1C(=O)NCCC(O)c1ccccc1F` (single isomer, unassigned) [Example 71, 3-(2-amino-[1,2,4]triazolo[1,5-a]pyridin-7-yl)-2-fluoro-N-(3-(2-fluorophenyl)-3-hydroxypropyl)-6-methylbenzamide], the results for the IC50 in assay [1] (setting [4]), in assay [2] (setting [6]) and in assay [3] were 18 nM, 21 nM and greater than 15000 nM, respectively.
As to `Cc1cc(F)c(-c2ccn3nc(N)nc3c2)cc1C(=O)NCCC(O)c1ccc(F)cc1` (single isomer, unassigned) [Example 10, 5-(2-amino-[1,2,4]triazolo[1,5-a]pyridin-7-yl)-4-fluoro-N-(3-(4-fluorophenyl)-3-hydroxypropyl)-2-methylbenzamide], the IC50 in assay [1] (setting [4]) was 9.4 nM; in assay [1] (setting [7]), 9.4 nM; in assay [2] (setting [6]), 2.5 nM; in assay [2] (read-out: pMLKL IC50, Table 22, compounds of the present invention), 2.5 nM; in assay [3], greater than 15000 nM.
With `Cc1ccc(-c2ccn3nc(N)nc3c2)cc1C(=O)NCC[C@@H](O)c1ccc(Cl)cc1` [Example 159, (R)-5-(2-amino-[1,2,4]triazolo[1,5-a]pyridin-7-yl)-N-(3-(4-chlorophenyl)-3-hydroxypropyl)-2-methylbenzamide], the IC50 is 2.5 nM in assay [1] (setting [4]); 2.5 nM in assay [1] (setting [7]); 1.9 nM in assay [2] (Homo sapiens, 6 h, HT29-L23 cells, necroptosis induced with TNFα, SMAC mimetic and Z-VAD, 6 h, maximal inhibition defined by Nec1s, read-out: pMLKL IC50); 1.9 nM in assay [2] (Homo sapiens, Table 22, compounds of the present invention, read-out: pMLKL IC50); greater than 15000 nM in assay [3].
With `Cc1ccc(-c2ccn3nc(N)nc3c2)c(F)c1C(=O)NCC(F)(F)C(O)c1ccc(Cl)cc1` (stereo not shown) [Example 29, 3-(2-amino-[1,2,4]triazolo[1,5-a]pyridin-7-yl)-N-(3-(4-chlorophenyl)-2,2-difluoro-3-hydroxypropyl)-2-fluoro-6-methylbenzamide], the IC50 in assay [1] (setting [4]) was 2.2 nM; in assay [2] (setting [5]), 0.7 nM; in assay [3] it was greater than 15000 nM.
For `Cc1ccc(-c2ccn3nc(N)nc3c2)c(F)c1C(=O)NCCC(O)c1ccc(Cl)cc1F` (single isomer, unassigned) [Example 69, 3-(2-amino-[1,2,4]triazolo[1,5-a]pyridin-7-yl)-N-(3-(4-chloro-2-fluorophenyl)-3-hydroxypropyl)-2-fluoro-6-methylbenzamide], the IC50 in assay [1] (setting [4]) was 1.4 nM; in assay [2] (setting [6]) it was 0.4 nM; in assay [3] it was greater than 15000 nM.
On the same counts, the results for `Cc1ccc(-c2ccn3nc(N)nc3c2)c(F)c1C(=O)NCCC(O)C1CCCCC1` (single isomer, unassigned) [Example 42, 3-(2-amino-[1,2,4]triazolo[1,5-a]pyridin-7-yl)-N-(3-cyclohexyl-3-hydroxypropyl)-2-fluoro-6-methylbenzamide] are 1.3 nM, 2.8 nM and greater than 15000 nM.
`Cc1ccc(-c2ccn3nc(N)nc3c2)c(F)c1C(=O)NCCC(O)C1CCCC1` (stereo not shown) [Example 247, 3-(2-amino-[1,2,4]triazolo[1,5-a]pyridin-7-yl)-N-(3-cyclopentyl-3-hydroxypropyl)-2-fluoro-6-methylbenzamide]: the results for the IC50 in assay [1] (setting [4]), in assay [2] (setting [5]) and in assay [3] were 13 nM, 21 nM and greater than 15000 nM, respectively.
For `Cc1ccc(-c2ccn3nc(N)nc3c2)c(F)c1C(=O)NCC(F)(F)C(C)(O)c1ccc(Cl)cc1` (single isomer, unassigned) [Example 221, 3-(2-amino-[1,2,4]triazolo[1,5-a]pyridin-7-yl)-N-(3-(4-chlorophenyl)-2,2-difluoro-3-hydroxybutyl)-2-fluoro-6-methylbenzamide] the same measures were 3.2 nM, 0.9 nM and greater than 15000 nM.
On the same counts, the results for `Cc1ccc(-c2ccn3nc(N)nc3c2)c(F)c1C(=O)NCCC(c1ccccc1)C(F)(F)F` (racemic) [Example 11, 3-(2-amino-[1,2,4]triazolo[1,5-a]pyridin-7-yl)-2-fluoro-6-methyl-N-(4,4,4-trifluoro-3-phenylbutyl)benzamide] are 1.2 nM, 5.9 nM and greater than 15000 nM.
Consider `Cc1ccc(-c2ccn3nc(N)nc3c2)c(F)c1C(=O)NCCC(O)C1CCCC1` (stereo not shown) [Example 248, 3-(2-amino-[1,2,4]triazolo[1,5-a]pyridin-7-yl)-N-(3-cyclopentyl-3-hydroxypropyl)-2-fluoro-6-methylbenzamide], for which the IC50 is 22 nM in assay [1] (setting [4]), 20 nM in assay [2] (setting [6]) and greater than 15000 nM in assay [3].
On to `Nc1nc2cc(-c3ccc(Cl)c(C(=O)NC[C@H](F)[C@H](O)c4ccc(F)cc4)c3F)ccn2n1` (single isomer, unassigned) [Example 299], for which the IC50 in assay [1] (setting [4]) stood at 16 nM; in assay [2] (setting [5]) it was 37 nM; in assay [3], 10000 nM.
As to `Cc1c(F)cc(-c2ccn3nc(N)nc3c2)cc1C(=O)NCCC(C)c1ccccc1` (stereo not shown) [Example 95, 5-{2-amino-[1,2,4]triazolo[1,5-a]pyridin-7-yl}-3-fluoro-2-methyl-N-(3-phenylbutyl)benzamide], the half-inhibitory concentration (IC50) was 3 nM in assay [1] (setting [4]), 5.9 nM in assay [2] (setting [5]) and greater than 15000 nM in assay [3].
On the same counts, the results for `Cc1cc(F)c(-c2ccn3nc(N)nc3c2)c(F)c1C(=O)NCC[C@@H](O)c1ccc(Cl)cc1` [Example 278, (R)-3-(2-amino-[1,2,4]triazolo[1,5-a]pyridin-7-yl)-N-(3-(4-chlorophenyl)-3-hydroxypropyl)-2,4-difluoro-6-methylbenzamide] are 13 nM, 38 nM and greater than 15000 nM.
Turning to `Nc1nc2cc(-c3ccc(Cl)c(C(=O)NCCC4(c5ccc(F)cc5)CC4)c3F)ccn2n1` [Example 84, 3-(2-amino-[1,2,4]triazolo[1,5-a]pyridin-7-yl)-6-chloro-2-fluoro-N-(2-(1-(4-fluorophenyl)cyclopropyl)ethyl)benzamide], the figures for the IC50 in assay [1] (setting [4]), in assay [2] (setting [5]) and in assay [3] were 1.6 nM, 1.1 nM and greater than 15000 nM, respectively.
On the same counts, the results for `Cc1ccc(-c2ccn3nc(N)nc3c2)c(F)c1C(=O)NCC(F)(F)C(=O)c1ccc(F)cc1` [Example 281, 3-(2-amino-[1,2,4]triazolo[1,5-a]pyridin-7-yl)-N-(2,2-difluoro-3-(4-fluorophenyl)-3-oxopropyl)-2-fluoro-6-methylbenzamide] are 7.2 nM, 1.3 nM and greater than 15000 nM.
On the same counts, the results for `Nc1nc2cc(-c3ccc(F)c(C(=O)NCCC4(c5ccc(F)cc5)CC4)c3F)ccn2n1` [Example 249, 3-(2-amino-[1,2,4]triazolo[1,5-a]pyridin-7-yl)-2,6-difluoro-N-(2-(1-(4-fluorophenyl)cyclopropyl)ethyl)benzamide] are 2.1 nM, 10 nM and greater than 15000 nM.
As for `Nc1nc2cc(-c3ccc(Cl)c(C(=O)NCC(F)(F)C(O)c4ccc(OC(F)F)cc4)c3F)ccn2n1` (stereo not shown) [Example 186, 3-(2-amino-[1,2,4]triazolo[1,5-a]pyridin-7-yl)-6-chloro-N-(3-(4-(difluoromethoxy)phenyl)-2,2-difluoro-3-hydroxypropyl)-2-fluorobenzamide], the IC50 in assay [1] (setting [4]) worked out at 2.9 nM; in assay [2] (setting [6]) it was 0.2 nM; in assay [3], 12000 nM.

These data come from patent publication US11767322B2 (BRISTOL-MYERS SQUIBB COMPANY, priority 2020, dated 2023).
